Eight compounds from patent US20250195485A1, “PROPIONIC ACID DERIVATIVE AND MEDICAL USE THEREOF” (Xizang Haisco Pharmaceutical Co., Ltd., priority 2021, published 2025) can be followed below.

One data set addresses T1, integrin α4β7 (Homo sapiens, UniProt P13612+P26010).
T1 sequence (P13612 34-1032): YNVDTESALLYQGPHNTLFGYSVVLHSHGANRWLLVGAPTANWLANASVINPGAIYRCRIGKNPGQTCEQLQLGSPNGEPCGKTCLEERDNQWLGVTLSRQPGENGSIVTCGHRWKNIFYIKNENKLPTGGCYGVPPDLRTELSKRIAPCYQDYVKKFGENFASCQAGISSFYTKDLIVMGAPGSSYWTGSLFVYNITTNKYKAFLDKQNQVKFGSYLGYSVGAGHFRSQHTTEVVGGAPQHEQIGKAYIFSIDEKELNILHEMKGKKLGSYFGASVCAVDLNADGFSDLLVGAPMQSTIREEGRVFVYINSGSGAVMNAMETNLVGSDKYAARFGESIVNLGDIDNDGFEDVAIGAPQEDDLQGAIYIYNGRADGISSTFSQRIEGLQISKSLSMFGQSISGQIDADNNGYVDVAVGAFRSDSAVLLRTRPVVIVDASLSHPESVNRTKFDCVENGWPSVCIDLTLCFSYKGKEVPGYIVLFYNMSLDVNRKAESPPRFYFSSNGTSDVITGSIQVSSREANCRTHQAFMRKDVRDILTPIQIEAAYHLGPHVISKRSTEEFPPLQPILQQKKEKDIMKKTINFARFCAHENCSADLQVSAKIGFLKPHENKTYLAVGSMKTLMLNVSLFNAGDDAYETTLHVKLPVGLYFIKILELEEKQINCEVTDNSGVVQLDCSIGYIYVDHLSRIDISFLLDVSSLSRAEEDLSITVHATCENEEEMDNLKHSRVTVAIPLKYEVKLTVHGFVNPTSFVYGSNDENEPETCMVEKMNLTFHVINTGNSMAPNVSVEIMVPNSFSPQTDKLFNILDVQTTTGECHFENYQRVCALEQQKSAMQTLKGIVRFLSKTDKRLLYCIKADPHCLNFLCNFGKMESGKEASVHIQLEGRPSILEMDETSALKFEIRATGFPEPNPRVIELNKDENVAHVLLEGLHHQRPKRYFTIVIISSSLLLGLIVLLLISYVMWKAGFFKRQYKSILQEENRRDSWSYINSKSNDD
T1 sequence (P26010 20-798): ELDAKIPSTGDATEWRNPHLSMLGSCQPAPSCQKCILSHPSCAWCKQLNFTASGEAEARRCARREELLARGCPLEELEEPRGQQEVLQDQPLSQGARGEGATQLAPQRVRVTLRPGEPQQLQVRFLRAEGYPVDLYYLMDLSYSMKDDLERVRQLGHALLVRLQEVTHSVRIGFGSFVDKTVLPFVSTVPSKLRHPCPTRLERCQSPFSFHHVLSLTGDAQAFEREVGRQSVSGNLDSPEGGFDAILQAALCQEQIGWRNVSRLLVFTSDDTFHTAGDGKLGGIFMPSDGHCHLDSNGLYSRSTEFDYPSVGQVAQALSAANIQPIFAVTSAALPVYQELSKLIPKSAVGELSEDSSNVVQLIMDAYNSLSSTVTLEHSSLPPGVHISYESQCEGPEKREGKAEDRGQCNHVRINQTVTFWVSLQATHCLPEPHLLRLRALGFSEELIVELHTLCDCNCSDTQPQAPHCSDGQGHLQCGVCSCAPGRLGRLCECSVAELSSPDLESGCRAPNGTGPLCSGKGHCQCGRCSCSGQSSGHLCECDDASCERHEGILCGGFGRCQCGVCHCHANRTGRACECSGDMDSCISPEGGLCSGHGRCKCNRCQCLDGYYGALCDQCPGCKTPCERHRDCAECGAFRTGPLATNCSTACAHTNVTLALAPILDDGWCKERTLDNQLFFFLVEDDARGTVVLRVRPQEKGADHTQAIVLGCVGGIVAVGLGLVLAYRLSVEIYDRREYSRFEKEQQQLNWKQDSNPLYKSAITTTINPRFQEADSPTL
The data set can be described thus: Integrin α4β7-mediated cell adhesion assay (RPM18866 cells on MAdCAM-1). Format: cell-based. As to conditions: for IC50: RPMI-8866 cells adhering to MAdCAM-1; for α4β1/α4β7: selectivity ratio of α4β1 IC50 to α4β7 IC50 in cell adhesion. As for the experimental part:
MAdCAM-1 was formulated with TBS buffer to a final concentration of 2 μg/ml, 50 μl of the solution was transferred to a 96-well plate, and the plate was coated with same at 4° C. overnight. The plate was washed with TBS buffer three times, then 150 μl of a blocking solution (TBS buffer containing 1% BSA) was added, and the plate was blocked at 37° C. for 1 h. […] 50 μl of the cell suspension was transferred to a 96-well plate so that the cell density reached 2×10^5 cells/well. Then 1 μl of the compound at different concentrations or DMSO was added and the plate was incubated at 37° C. for 1 h or 2 h. The plate was washed with TBS buffer to remove non-adherent cells. 50 μl of a substrate (4-nitrophenyl-N-acetyl-β-D-glucosaminide) was added and the plate was incubated at 37° C. for 2 h. […] The IC50 value was calculated using GraphPad Prism 6 software.

The target of the next data set is T2, integrin α4β1 (Homo sapiens, UniProt P05556+P13612).
T2 construct: Jurkat cells were collected, washed twice using DPBS buffer; endogenous in cells; host or cells: Jurkat cells
As to the kind of experiment: Integrin α4β1-mediated cell adhesion assay (Jurkat cells on VCAM). Format: cell-based. As to conditions: Jurkat cells adhering to VCAM-1. As for the experimental part: VCAM was formulated into a final concentration of 0.5 μg/ml with a coating buffer, 50 μl of the solution was transferred to a 96-well plate, and the plate was coated with same at 4° C. overnight. The plate was washed with coating buffer three times, then 150 μl of a blocking solution (coating buffer containing 1% BSA) was added, and the plate was blocked at 37° C. for 1 h. […] 50 μl of the cell suspension was transferred to a 96-well plate so that the cell density reached 2×10^5 cells/well. Then 1 μl of the test compound at different concentration or DMSO was added and the plate was incubated at 37° C. for 1 h. The plate was washed with coating buffer to remove non-adherent cells. 50 μl of a substrate (4-nitrophenyl-N-acetyl-β-D-glucosaminide) was added and the plate was incubated at 37° C. for 2 h. […] The […] was calculated using GraphPad Prism 6 software. The results are shown in Table 1. • Coating buffer: DMEM+20 mM HEPES+0.4 mM MnC2 • Action buffer: DMEM+20 mM HEPES+0.1% BSA+0.4 mM MnCl2 • DMEM: dulbecco's modified eagle medium; • HEPES: 2-[4-(2-hydroxyethyl)piperazin-1-yl]ethanesulfonic acid

A short description of data set [1]: Pharmacokinetic test in mice. The data set is classed as in vivo. As to conditions: male BALB/c mice. As for the experimental part:
Experimental animals: male BALB/c mice, 20-25 g, 6 mice/compound. Purchased from Chengdu Ddossy Experimental Animals Co., Ltd.
Test design: on the day of the test, 6 BALB/c mice were randomly grouped according to their body weights. The animals were fasted with water available for 12 to 14 h one day before the administration, and were fed 4 h after the administration.
Before and after the administration, 0.06 mL of blood was taken from the orbit of the animals under isoflurane anesthesia and placed in an EDTAK2 centrifuge tube. The blood was centrifuged at 5000 rpm and 4° C. for 10 min to collect the plasma. The blood collection time points for the intravenous group and intragastric administration group were: 0 min, 5 min, 15 min, 30 min, 1 h, 2 h, 4 h, 6 h, 8 h, and 24 h. Before analysis and detection, all samples were stored at −80° C. The samples were analyzed quantitatively by LC-MS/MS.

T2 sequence (P05556 21-798, one chain of several): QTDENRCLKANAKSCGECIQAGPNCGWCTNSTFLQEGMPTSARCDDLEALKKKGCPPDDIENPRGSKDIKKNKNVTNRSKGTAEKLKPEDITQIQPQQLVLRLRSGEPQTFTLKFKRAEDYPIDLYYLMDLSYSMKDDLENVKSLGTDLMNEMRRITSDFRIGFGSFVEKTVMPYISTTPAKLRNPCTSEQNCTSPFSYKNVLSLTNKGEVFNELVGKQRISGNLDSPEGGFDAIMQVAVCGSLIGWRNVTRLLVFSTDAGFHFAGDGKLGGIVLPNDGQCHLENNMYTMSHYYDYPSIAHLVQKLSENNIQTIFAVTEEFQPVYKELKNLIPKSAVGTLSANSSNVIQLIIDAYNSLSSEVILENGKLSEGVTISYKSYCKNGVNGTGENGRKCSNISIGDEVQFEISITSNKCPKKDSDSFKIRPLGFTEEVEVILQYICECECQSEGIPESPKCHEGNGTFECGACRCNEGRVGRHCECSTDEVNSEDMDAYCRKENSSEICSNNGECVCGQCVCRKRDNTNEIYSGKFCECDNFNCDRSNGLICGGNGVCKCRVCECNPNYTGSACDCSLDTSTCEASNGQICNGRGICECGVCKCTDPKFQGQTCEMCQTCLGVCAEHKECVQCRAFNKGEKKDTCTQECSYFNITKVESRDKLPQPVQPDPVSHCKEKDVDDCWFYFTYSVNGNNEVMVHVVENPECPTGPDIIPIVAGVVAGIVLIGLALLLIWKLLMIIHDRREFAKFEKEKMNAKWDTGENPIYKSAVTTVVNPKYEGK

What is called IC50 is the concentration that gives 50% inhibition. High values mean lower potency, low ones higher potency. For the compound `Cc1ccn(C(CC(C)C)C(=O)NC(CC(=O)O)c2cc(-c3c(C)cccc3C)n3ccnc3c2)c(=O)c1` (stereo not shown) [Compound 9], the IC50 against integrin α4β7 is < 0.01 µM.

On to `Cc1cc(-c2c(C)cccc2C)cc(C(CC(=O)O)NC(=O)C(CC(C)C)n2cc(CCN3CC(CF)C3)cc(F)c2=O)c1F` (stereo not shown) [Compound 13], for which, at integrin α4β7, the IC50 is < 0.01 µM.

For the compound `C#Cc1ncc(C(CC(=O)O)NC(=O)C(CC(C)C)n2cc(CCN3CC(F)C3)cc(F)c2=O)cc1-c1c(C)cccc1C` (stereo not shown) [Compound 14], on integrin α4β7, the IC50 was < 0.0005 µM and the α4β1/α4β7 is >500. For the same compound, the midpoint of inhibition at integrin α4β1, the IC50, lay at 0.127 µM.

As to `C#Cc1cc(-c2c(C)cc(F)cc2C)cc(C(CC(=O)O)NC(=O)C(CC(C)C)n2cc(CCN(C)C)c(C(F)(F)F)cc2=O)c1F` (stereo not shown) [Compound 26-2], the IC50 on integrin α4β7 was < 0.0005 µM.

As to `Cc1cc(F)cc(C)c1-c1cc(C(CC(=O)O)NC(=O)C(CC(C)C)n2cc(CCN(C)C)c(C(F)(F)F)cc2=O)cc2c1CCC2` (stereo not shown) [Compound 30-2], the IC50 is < 0.0005 µM at integrin α4β7 and 0.0911 µM against integrin α4β1. For the same compound, the α4β1/α4β7 on integrin α4β7 was found to be 1011.7.

What is called clearance is the rate of elimination divided by the concentration. As a reminder, the AUC is the area under the concentration-time curve, a measure of exposure. In turn, `Cc1cc(-c2c(C)cc(F)cc2C)cc([C@H](CC(=O)O)NC(=O)[C@H](CC(C)C)n2cc(CCN(C)C)c(C(F)(F)F)cc2=O)c1F` [Control compound A, reference compound] came in with a F in data set [1] (intragastrically 10 mg/kg vs intravenously 1 mg/kg) of 28.2%. The clearance in data set [1] (mouse, intravenous, plasma, groups: intravenously 1 mg/kg, intragastrically 10 mg/kg (route for this parameter not stated)) came to 56 mL/min/kg. The AUC in data set [1] (mouse, plasma, oral absorption results, groups: intravenously 1 mg/kg, intragastrically 10 mg/kg (route for this parameter not stated)) was found to be 830 ng·h/mL.

For `Cc1cc(F)cc(C)c1-c1cc(C(CC(=O)O)NC(=O)C(CC(C)C)n2cc(CCN(C)C)c(C(F)(F)F)cc2=O)cc2nccn12` (stereo not shown) [Trifluoroacetate of compound 20-2], at integrin α4β7, the IC50 is < 0.0005 µM and the α4β1/α4β7 was >100. The midpoint of inhibition on integrin α4β1, the IC50, lay at 0.0366 µM.

For `Cc1cc(C)c(-c2cc(C(CC(=O)O)NC(=O)C(CC(C)C)n3cc(CCN(C)C)c(C(F)(F)F)cc3=O)cn3ccnc23)c(C)c1` (stereo not shown) [Trifluoroacetate of compound 22-2], the half-inhibitory concentration (IC50) against integrin α4β7 was < 0.01 µM.
